# Measured values published in publication PMC12607858, “GNAT family Pat2 is required for long-term survival on glycerol and catalyzes lysine acetylation of glycerol kinase in hypersaline-adapted archaea” (mBio, 2025).
# Experiments:
# [1] = target: T1, HvPat2 (HvPat2-SII) (Haloferax volcanii, UniProt D4GSS9); assay: anti-acetyllysine immunoblot of in vitro acetylation of His-HvGlpK; type: biochemical; conditions: acetyl donor 0.2 mM; 6 uM enzyme; co-substrate HvGlpK 2 uM; 50 mM HEPES pH 7.5, 2 M NaCl, 1 mM DTT, 37 C, 3 h
# T1 construct: gene pat2; full-length single GNAT domain, C-terminal StrepII tag kept; expressed in and purified from H. volcanii H26 delta-pat2; 196 residues with tag, 21,636 Da, monomer
# [2] = target: T2, HvPat2 (HvPat2-SII) (Haloferax volcanii, UniProt D4GSS9, N147A); assay: as above; type: biochemical; conditions: acetyl donor 0.2 mM; 6 uM enzyme; co-substrate HvGlpK 2 uM; 50 mM HEPES pH 7.5, 2 M NaCl, 1 mM DTT, 37 C, 3 h
# T2 construct: gene pat2; full-length single GNAT domain, C-terminal StrepII tag kept; expressed in and purified from H. volcanii H26 delta-pat2; 196 residues with tag, 21,636 Da, monomer
# T2 sequence (D4GSS9 entry or part of it N147A): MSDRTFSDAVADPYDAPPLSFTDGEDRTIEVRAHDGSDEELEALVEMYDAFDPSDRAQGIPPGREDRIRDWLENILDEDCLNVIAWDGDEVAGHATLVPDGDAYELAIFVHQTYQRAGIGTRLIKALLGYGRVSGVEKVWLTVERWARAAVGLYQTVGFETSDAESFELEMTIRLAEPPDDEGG
# T1 sequence (D4GSS9 entry or part of it): as the sequence (D4GSS9 entry or part of it N147A) above, with A147N counted along it
compound,measurement,setting,value
CC(=O)SCCNC(=O)CCNC(=O)[C@H](O)C(C)(C)COP(=O)(O)OP(=O)(O)OC[C@H]1O[C@@H](n2cnc3c(N)ncnc32)[C@H](O)[C@@H]1OP(=O)(O)O [acetyl-CoA],anti-acetyllysine immunoblot of in vitro acetylation of His-HvGlpK,[1],"when His-HvGlpKEc was incubated with both HvPat2 and acetyl-CoA, a strong signal for lysine acetylation"
same,anti-acetyllysine immunoblot of in vitro acetylation of His-HvGlpK,[2],"The V110A variant showed minimal activity, while N147A exhibited reduced activity"
